The values that follow come from patent US20180355441A1, “VISUAL DETECTION OF PLATINATED DNA LESIONS FROM A CLICKABLE CISPLATIN PROBE USED AS DIAGNOSTIC TOOL OR TO IDENTIFY SYNERGISTIC TREATMENTS” (CENTRE NATIONAL DE LA RECHERCHE SCIENTIFIQUE, priority 2015, published 2018).

In one assay the test system is U2OS cells. The experiment in a line: Cell viability assay (CellTiter-Blue), anti-proliferative activity. Particulars: 72 h treatment. In kind it is cell-based, human. As to the method:
Cell viability assays were carried out by plating U2OS cells (2,000 cells per well) in 96-well plates.
Background: Alamar Blue is a resazurin reagent that responds to reducing activity.

Assay [1] relates to genomic DNA from U2OS cells. Particulars: compared to equal amounts of DNA collected from CP-treated cells; 3 h treatment. An excerpt:
Samples were air dried and visualized using a Bio-Rad Molecular Imager ChemiDoc XRS+ system.

In assay [2] the test system is 26-mer hairpin-forming DNA oligonucleotide containing a single 1,2-GG dinucleotide. Conditions: 37° C., 18 h.
Method: The reaction of hp with ACP was performed at 37° C. for 18 h. Unbound ACP and salts were removed using a Sephadex G-25 Medium size exclusion resin (GE Healthcare) on laboratory prepared spin columns (BioRad).
Another assay relates to DNA-Pt in U2OS cells. As to the kind of experiment: Screen of small molecule modulators of genome targeting using ACP staining as readout. It counts as cell-based, human. Particulars: U2OS cells co-treated with small molecule and ACP, confocal microscopy. As to the method: Labeled DNA-Pt were analyzed by confocal microscopy.
[…], ACP, APPOA and CP were prepared in the laboratory as described in the synthesis section of the methods. Suberoylanilide hydroxamic acid (SAHA) was purchased from Sigma and cisplatin was purchased from Tocris.
Data were analyzed with ImagaJ.

A further assay concerns histone H4. As to the kind of experiment: Western blot of histone H4 acetylation. In kind it is cell-based, human. Particulars: U2OS cells. As for the experimental part: Cells were washed once with PBS and lysed in lysis buffer (50 mM Tris-HCl, pH 7.5, 150 mM NaCl, 1 mM EDTA, 1% Triton X-100). For Western blot, samples were briefly sonicated followed by boiling in SDS sample buffer and separated by SDS-PAGE gels. Proteins were transferred to nitrocellulose membrane (GE Healthcare) and western blotting was performed following standard protocols. Western blots were detected by chemiluminescence (GE Healthcare Amersham ECL prime) using a Bio-Rad Molecular Imager ChemiDoc XRS+ system. The primary antibodies used for western blotting: H2AX (Millipore; #07-627), γH2AX [pSer139] (Novus Biologicals; NB100-384), histone H4 (Abcam; ab7311), acetyl-histone H4 (Lys16) (Cell Signaling; #8804), acetyl-histone H4 (Millipore; #06-866), PCNA (Santa Cruz Biotech; PC10), RAD18 (Cell Signaling; #21000), PARP (Cell Signaling; #9542), β-tubulin (Abcam; ab6046). Secondary antibodies used were: anti-rabbit IgG, HRP-linked (Cell Signaling; #7074), anti-mouse IgG, HRP-linked (Cell Signaling; #7076).
(In western blotting, separated proteins are transferred to a membrane and probed.)

As to “2-aminomethylpyridine(dichloro)platinum(II) azide [ACP]”, in the assay with U2OS cells, the “Anti-proliferative activity against U2OS cells” value is on record as “exhibited anti-proliferative properties”. In assay [1], the “Fluorescence of labeled genomic DNA (dot blot)” value is given as “higher level of fluorescence”. In assay [2], the “Reactivity towards DNA and labeling by alkyne-containing tag in vitro” value is “can chemoselectively cross react with DNA and be labeled by an alkyne-containing tag”. For the compound `O=C(CCCCCCC(=O)Nc1ccccc1)NO` [SAHA, Suberoylanilide hydroxamic acid], the “Effect on ACP staining (DNA-Pt) by visual inspection” value in the assay on DNA-Pt in U2OS cells is listed as “led to the occurrence of foci of DNA-Pt”. Moreover, the “Histone H4 acetylation” value in the assay with histone H4 is listed as “induced histone hyperacetylation of histone H4”. Consider `N.N.[Cl][Pt][Cl]` [cisplatin], for which the “Anti-proliferative activity against U2OS cells” value in the assay on U2OS cells is recorded as “exhibited anti-proliferative properties”.

As to `Nc1ncn([C@@H]2O[C@H](CO)[C@@H](O)[C@H]2O)c(=O)n1` [Compound 5-Aza, 5-Azacytidine], the “Effect on ACP staining (DNA-Pt) by visual inspection” value in the assay on DNA-Pt in U2OS cells is “led to the occurrence of foci of DNA-Pt”.
